Reference: article PMC3214178, “High-yield production of aromatic peroxygenase by the agaric fungus Marasmius rotula” (AMB Express, 2011)
Blank lines part the entries; values can stand above or below the molecule they belong to.

Legend:
Format in all cases: biochemical
[1] = test system: T1, MroAPO (Marasmius rotula aromatic peroxygenase); experiment: spectrophotometric initial rates, dimeric DMP quinone at […] nm; Lineweaver-Burk; conditions: 2 mM H2O2, sodium phosphate/citrate buffer pH 5.5, 25°C
T1 construct: native secreted heme-thiolate enzyme purified by FPLC from culture liquid of wild-type fungus

[2] = test system: T1, MroAPO (Marasmius rotula aromatic peroxygenase); experiment: spectrophotometric initial rates, 1-naphthol at […] nm; Lineweaver-Burk; conditions: H2O2 co-substrate (table note 2 mM; methods give start with 20 μl H2O2 (200 μM)), sodium phosphate/citrate buffer pH 5.5, acetonitrile as substrate solvent, 25°C
[3] = test system: T1, MroAPO (Marasmius rotula aromatic peroxygenase); experiment: spectrophotometric initial rates, ABTS cation radical at […] nm; Lineweaver-Burk; conditions: 2 mM H2O2, sodium phosphate/citrate buffer pH 4.5, 25°C
[4] = test system: T1, MroAPO (Marasmius rotula aromatic peroxygenase); experiment: spectrophotometric initial rates, veratraldehyde at […] nm; Lineweaver-Burk; conditions: 2 mM H2O2, sodium phosphate/citrate buffer pH 5.5, 25°C

- Km [1]: 133 µM
Structure (SMILES): COc1cccc(OC)c1O [DMP]

Structure (SMILES): c1ccc2ccccc2c1 [Naphthalene]
- Km [2]: 791 µM

Structure (SMILES): CCn1c(=NN=c2sc3cc(S(=O)(=O)O)ccc3n2CC)sc2cc(S(=O)(=O)O)ccc21 [ABTS]
- Km [3]: 71 µM

Structure (SMILES): COc1ccc(CO)cc1OC [Veratryl alcohol]
- Km [4]: 279 µM
